# Earlier results as cited in patent US10918604B2, “Solid oral dosage forms of eslicarbazepine” (Jubilant Generics Limited, priority 2015, dated 2021).
# Conditions: reported in background
compound,measurement,value
"CC(=O)O[C@H]1Cc2ccccc2N(C(N)=O)c2ccccc21 [Eslicarbazepine acetate, (S)-10-acetoxy-10,11-dihydro-5H-dibenzo[b,f]azepine-5-carboxamide]",solubility in water,poorly soluble in water
